Test results as given in patent US20130243707A1, “TOPICAL COMPOSITIONS” (priority 2006, published 2013).

Assays:
[1] = Solubility of Drugs in single solvent alcohols; assay type: physicochemical
Method: Briefly, the indicated NSAID was weighed and added to a beaker. To each beaker, incremental amounts of the indicated solvent was weighed and added. The beakers were sealed with aluminum foil and placed at room temperature or in a 35 C water bath for 20-30 minutes. They beakers were shaken frequently to mix the contents. After 20-30 minutes the solvent alcohols were examined. If a single phasic solution was not yet achieved, an additional aliquot of the solvent was added and the cycle was repeated until complete solvation had occurred.

[2] = Maximal NSAID and water concentrations in PG/PEG solvent systems; assay type: physicochemical; set-up: B maximum: unit not given here
Text: With the teaching herein, useful Drug and water concentrations can be determined for a given solvent system. Such concentrations can be described by the equation W=mD+b, where W is a water concentration, D is the Drug concentration, b is the y intercept, and m is the slope.

[3] = Super-solvent effect (Drug solubilized by combinations of solvent alcohols); assay type: physicochemical
Method: Methods. First, the amount of each solvent alcohol required to solubilize one gram of NSAID was determined (saturation amount). Next, each combination of 2, 3 and 4 solvent alcohols were made using the saturation amounts determined by the first step. Finally, the amount of drug that could be solubilized by the solvent systems (i.e. the solvent alcohol combinations) was determined. The super-solvent effect was determined using this protocol, where percent=actual grams solubilized divided by the predicted grams (based upon the first step) expressed as percent increase (e.g. if twice the predicted amount could be solubilized, the super-solvent effect would be % 100.

[4] = Super-solvent water effect (maximum water before NSAID precipitates); assay type: physicochemical; conditions: for Super-solvent Effect: in %
Method: Methods. […] These amounts are chosen based upon the solubility of one gram of NSAID and the amount of the single solvent alcohol for saturation. Next, water was added in step-wise manner to determine the maximum amount that can be added before any visible amount of the NSAID precipitated (i.e., the volume of water that can be added and yet remain single phasic).

[5] = cited from earlier work
[6] = cited from earlier work; remark: listed apart in the source
[7] = Flurbiprofen 2 gm, EtOH 2 gm, IPA 3 gm
[8] = Flurbiprofen 2 gm, PEG 2 gm, EtOH 2 gm
[9] = Flurbiprofen 2 gm, PEG 2 gm, IPA 3 gm
[10] = Flurbiprofen 2 gm, PG 6 gm, EtOH 2 gm
[11] = Flurbiprofen 2 gm, PG 6 gm, IPA 3 gm
[12] = Flurbiprofen 2 gm, PG 6 gm, PEG 2 gm
[13] = Flurbiprofen 3 gm, PEG 2 gm, EtOH 2 gm, IPA 3 gm
[14] = Flurbiprofen 3 gm, PG 6 gm, EtOH 2 gm, IPA 3 gm
[15] = Flurbiprofen 3 gm, PG 6 gm, PEG 2 gm, EtOH 2 gm
[16] = Flurbiprofen 3 gm, PG 6 gm, PEG 2 gm, IPA 3 gm
[17] = Flurbiprofen 4 gm, PG 6 gm, PEG 2 gm, EtOH 2 gm, IPA 3 gm

Compound: CC(=O)Nc1ccc(O)cc1 [Acetaminophen]
- Maximum Drug Concentration in single alcohol: EtOH ([1]; Solubility at 35 C): 16.67
- Maximum Drug Concentration in single alcohol: IPA ([1]; Solubility at 35 C): 8.33
- Maximum Drug Concentration in single alcohol: PEG ([1]; Solubility at 35 C): 10.00
- Maximum Drug Concentration in single alcohol: PG ([1]; Solubility at 35 C): 10.00
- Maximum Drug Concentration in single alcohol: EtOH ([1]; Solubility at Room Temperature): 9.52
- Maximum Drug Concentration in single alcohol: IPA ([1]; Solubility at Room Temperature): 4.35
- Maximum Drug Concentration in single alcohol: PEG ([1]; Solubility at Room Temperature): 5.41
- Maximum Drug Concentration in single alcohol: PG ([1]; Solubility at Room Temperature): 4.76
- B maximum ([2]; PG/PEG 1/3, b of y = −5.7055x + b): 100
- B maximum ([2]; PG/PEG 1/4, b of y = −6.4787x + b): 118
- B maximum ([2]; PG/PEG 2/2, b of y = −11.52x + b): 154
- B maximum ([2]; PG/PEG 3/4, b of y = −7.7243x + b): 124
- B maximum ([2]; PG/PEG 4/3, b of y = −6.3927x + b): 102
- Super-solvent Effect ([3]; EtOH 5 gr, IPA 11 gr): 21.6%
- Super-solvent Effect ([3]; PEG 400 9 gr, EtOH 5 gr): 60.0%
- Super-solvent Effect ([3]; PEG 400 9 gr, EtOH 5 gr, IPA 11 gr): 55.6%
- Super-solvent Effect ([3]; PEG 400 9 gr, IPA 11 gr): 63.8%
- Super-solvent Effect ([3]; PG 9 gr, EtOH 5 gr): 21.2%
- Super-solvent Effect ([3]; PG 9 gr, EtOH 5 gr, IPA 11 gr): 14.6%
- Super-solvent Effect ([3]; PG 9 gr, IPA 11 gr): 22.2%
- Super-solvent Effect ([3]; PG 9 gr, PEG 400 9 gr): 22.0%
- Super-solvent Effect ([3]; PG 9 gr, PEG 400 9 gr, EtOH 5 gr): 41.8%
- Super-solvent Effect ([3]; PG 9 gr, PEG 400 9 gr, EtOH 5 gr, IPA 11 gr): 52.5%
- Super-solvent Effect ([3]; PG 9 gr, PEG 400 9 gr, IPA 11 gr): 43.3%

Compound: CCCCOc1ccc(CC(=O)NO)cc1 [Bufexamac]
- Maximum Drug Concentration in single alcohol: EtOH ([1]; Solubility at Room Temperature): 1.23
- Maximum Drug Concentration in single alcohol: IPA ([1]; Solubility at Room Temperature): 0.62

Compound: O=C(O)Cc1ccccc1Nc1c(Cl)cccc1Cl [Diclofenac]
- Maximum Drug Concentration in single alcohol: EtOH ([1]; Solubility at 35 C): 14.29
- Maximum Drug Concentration in single alcohol: PEG ([1]; Solubility at 35 C): 8.33
- Maximum Drug Concentration in single alcohol: PG ([1]; Solubility at 35 C): 14.29
- Maximum Drug Concentration in single alcohol: EtOH ([1]; Solubility at Room Temperature): 11.11
- Maximum Drug Concentration in single alcohol: PEG ([1]; Solubility at Room Temperature): 7.69
- Maximum Drug Concentration in single alcohol: PG ([1]; Solubility at Room Temperature): 14.29
- Super-solvent Effect ([3]; PEG 400 11 gr, EtOH 6 gr): 81.0%
- Super-solvent Effect ([3]; PG 6 gr, EtOH 6 gr): 90.9%
- Super-solvent Effect ([3]; PG 6 gr, PEG 400 11 gr): 62.2%
- Super-solvent Effect ([3]; PG 6 gr, PEG 400 11 gr, EtOH 6 gr): 54.8%

Compound: CC(C(=O)O)c1ccc(-c2ccccc2)c(F)c1 (stereo not shown) [Flurbiprofen]
- Maximum Drug Concentration in single alcohol: EtOH ([1]; Solubility at 35 C): 33.33
- Maximum Drug Concentration in single alcohol: IPA ([1]; Solubility at 35 C): 25.00
- Maximum Drug Concentration in single alcohol: PEG ([1]; Solubility at 35 C): 33.33
- Maximum Drug Concentration in single alcohol: PG ([1]; Solubility at 35 C): 14.29
- Maximum Drug Concentration in single alcohol: EtOH ([1]; Solubility at Room Temperature): 16.67
- Maximum Drug Concentration in single alcohol: IPA ([1]; Solubility at Room Temperature): 14.29
- Maximum Drug Concentration in single alcohol: PEG ([1]; Solubility at Room Temperature): 12.50
- Maximum Drug Concentration in single alcohol: PG ([1]; Solubility at Room Temperature): 6.25
- Flurbiprofen % W/W ([4]; Flurbiprofen 1 gm, EtOH 2 gm): 20.0 % W/W
- Water Observed ([4]; Flurbiprofen 1 gm, EtOH 2 gm): 2 gm
- Flurbiprofen % W/W ([4]; Flurbiprofen 1 gm, IPA 3 gm): 14.3 % W/W
- Water Observed ([4]; Flurbiprofen 1 gm, IPA 3 gm): 3 gm
- Flurbiprofen % W/W ([4]; Flurbiprofen 1 gm, PEG 2 gm): 25.0 % W/W
- Water Observed ([4]; Flurbiprofen 1 gm, PEG 2 gm): 1 gm
- Flurbiprofen % W/W ([4]; Flurbiprofen 1 gm, PG 6 gm): 12.5 % W/W
- Water Observed ([4]; Flurbiprofen 1 gm, PG 6 gm): 1 gm
- Flurbiprofen % W/W [4, 7]: 18.2 % W/W
- Super-solvent Effect [4, 7]: 37.1
- Flurbiprofen % W/W [4, 8]: 25.0 % W/W
- Super-solvent Effect [4, 8]: 0.0
- Flurbiprofen % W/W [4, 9]: 15.4 % W/W
- Super-solvent Effect [4, 9]: 135.7
- Flurbiprofen % W/W [4, 10]: 12.5 % W/W
- Super-solvent Effect [4, 10]: 160.0
- Flurbiprofen % W/W [4, 11]: 11.8 % W/W
- Super-solvent Effect [4, 11]: 104.5
- Flurbiprofen % W/W [4, 12]: 14.3 % W/W
- Super-solvent Effect [4, 12]: 140.0
- Flurbiprofen % W/W [4, 13]: 18.8 % W/W
- Super-solvent Effect [4, 13]: 60.0
- Flurbiprofen % W/W [4, 14]: 13.6 % W/W
- Super-solvent Effect [4, 14]: 90.5
- Flurbiprofen % W/W [4, 15]: 17.6 % W/W
- Super-solvent Effect [4, 15]: 30.8
- Flurbiprofen % W/W [4, 16]: 13.6 % W/W
- Super-solvent Effect [4, 16]: 117.1
- Flurbiprofen % W/W [4, 17]: 15.4 % W/W
- Super-solvent Effect [4, 17]: 81.5
- pKa [5]: 4.14
- Log P [6]: 4.16

Compound: COc1ccc2c(c1)c(CC(=O)O)c(C)n2C(=O)c1ccc(Cl)cc1 [Indomethacin]
- Maximum Drug Concentration in single alcohol: EtOH ([1]; Solubility at Room Temperature): 0.25
- Maximum Drug Concentration in single alcohol: IPA ([1]; Solubility at Room Temperature): 0.10
- Maximum Drug Concentration in single alcohol: PEG ([1]; Solubility at Room Temperature): 0.05
- Maximum Drug Concentration in single alcohol: PG ([1]; Solubility at Room Temperature): 0.05
- Log P [6]: 3.08

Compound: COc1ccc2cc([C@H](C)C(=O)O)ccc2c1 [Naproxen]
- Water Added Until Precipitation Occurs ([2]; Naproxen 0.1215 gm, PG 2 gm, PEG 400 2 gm): 3.5 gm
- Water Added Until Precipitation Occurs ([2]; Naproxen 0.1755 gm, PG 1 gm, PEG 400 3 gm): 3.5 gm
- Water Added Until Precipitation Occurs ([2]; Naproxen 0.1755 gm, PG 4 gm, PEG 400 3 gm): 5 gm
- Water Added Until Precipitation Occurs ([2]; Naproxen 0.2295 gm, PG 3 gm, PEG 400 4 gm): 6.5 gm
- Water Added Until Precipitation Occurs ([2]; Naproxen 0.27 gm, PG 1 gm, PEG 400 4 gm): 4.5 gm
- Water Added Until Precipitation Occurs ([2]; Naproxen 0.324 gm, PG 2 gm, PEG 400 2 gm): 1 gm
- Water Added Until Precipitation Occurs ([2]; Naproxen 0.405 gm, PG 2 gm, PEG 400 2 gm): 0.5 gm
- Water Added Until Precipitation Occurs ([2]; Naproxen 0.468 gm, PG 1 gm, PEG 400 3 gm): 1 gm
- Water Added Until Precipitation Occurs ([2]; Naproxen 0.468 gm, PG 4 gm, PEG 400 3 gm): 2.5 gm
- Water Added Until Precipitation Occurs ([2]; Naproxen 0.54 gm, PG 1 gm, PEG 400 4 gm): 2.5 gm
- Water Added Until Precipitation Occurs ([2]; Naproxen 0.585 gm, PG 1 gm, PEG 400 3 gm): 0.5 gm
- Water Added Until Precipitation Occurs ([2]; Naproxen 0.585 gm, PG 4 gm, PEG 400 3 gm): 1.5 gm
- Water Added Until Precipitation Occurs ([2]; Naproxen 0.612 gm, PG 3 gm, PEG 400 4 gm): 2.5 gm
- Water Added Until Precipitation Occurs ([2]; Naproxen 0.675 gm, PG 1 gm, PEG 400 4 gm): 1 gm
- Water Added Until Precipitation Occurs ([2]; Naproxen 0.765 gm, PG 3 gm, PEG 400 4 gm): 1.5 gm
- Drug concentration range obtained at saturation ([2]; PG and PEG 50% to 82%, PG to PEG ratio 0.33 to 1.3): up to 13%
- B maximum (intercept of water versus Naproxen line) ([2]; PG/PEG 1/3): 52.794
- B maximum (intercept of water versus Naproxen line) ([2]; PG/PEG 1/4): 47.637
- B maximum (intercept of water versus Naproxen line) ([2]; PG/PEG 2/2): 54.158
- B maximum (intercept of water versus Naproxen line) ([2]; PG/PEG 3/4): 52.964
- B maximum (intercept of water versus Naproxen line) ([2]; PG/PEG 4/3): 56.913

Compound: O=C(O)c1cccnc1Nc1cccc(C(F)(F)F)c1 [Niflumic]
- Maximum Drug Concentration in single alcohol: EtOH ([1]; Solubility at Room Temperature): 3.23

Compound: C=CCOc1ccc(CC(=O)O)cc1Cl [alclofenac]
- pKa [5]: 4.26
- Log P [6]: 2.47

Compound: O=C(O)Cc1ccc(-c2ccccc2)cc1 [felbinac]
- pKa [5]: 4.29

Compound: O=C(O)c1ccccc1Nc1cccc(C(F)(F)F)c1 [flufenamic acid]
- Log P [6]: 5.62

Compound: Cc1cccc(Nc2ccccc2C(=O)O)c1C [mefenamic acid]
- pKa [5]: 3.69
- Log P [6]: 5.12

Compound: CN1C(C(=O)Nc2ccccn2)=C(O)c2ccccc2S1(=O)=O [piroxicam]
- pKa [5]: 3.6
- Log P [6]: 1.8

Compound: CC(C(=O)O)c1ccc(C(=O)c2ccccc2)s1 (stereo not shown) [tiaprofenic acid]
- pKa [5]: 4.05
